Data on 22 compounds can be found in US9518060B2, “Substituted pyrrolo[3,4-c]pyrazoles as PKC kinase inhibitors” (PFIZER INC., priority 2007, dated 2016).

This test deals with Protein Kinase C beta 2 (PKCβII) (Homo sapiens (Human), UniProt P05771). Nature of the test: PKCβII coupled spectrophotometric kinase assay (PK/LDH, NADH absorbance at 340 nm). The class given is biochemical. As to conditions: apparent Ki, ATP competitive inhibition model (Morrison equation); 0.1 mM ATP, 5 nM PKC, 30° C.; read-out: Ki app. How it is done: Protein Kinase C beta 2 (PKCβII) catalyzes the production of ADP from ATP that accompanies the phosphoryl transfer to the PKC Pseudosubstrate peptide (A→S, RFARKGSLRQKNV). This transfer is coupled to the oxidation of β-NADH through the activities of Pyruvate Kinase (PK) and Lactate Dehydrogenase (LDH). β-NADH conversion to NAD+ is monitored by the decrease in absorbance at 340 nm (e=6.22 cm^−1 mM^−1) using a Molecular Devices SPECTRA max PLUS spectrophotometer.
Protein Kinase C beta 2 (PKCβII), sequence (P05771 other isoform, or with tags, fused parts or gaps): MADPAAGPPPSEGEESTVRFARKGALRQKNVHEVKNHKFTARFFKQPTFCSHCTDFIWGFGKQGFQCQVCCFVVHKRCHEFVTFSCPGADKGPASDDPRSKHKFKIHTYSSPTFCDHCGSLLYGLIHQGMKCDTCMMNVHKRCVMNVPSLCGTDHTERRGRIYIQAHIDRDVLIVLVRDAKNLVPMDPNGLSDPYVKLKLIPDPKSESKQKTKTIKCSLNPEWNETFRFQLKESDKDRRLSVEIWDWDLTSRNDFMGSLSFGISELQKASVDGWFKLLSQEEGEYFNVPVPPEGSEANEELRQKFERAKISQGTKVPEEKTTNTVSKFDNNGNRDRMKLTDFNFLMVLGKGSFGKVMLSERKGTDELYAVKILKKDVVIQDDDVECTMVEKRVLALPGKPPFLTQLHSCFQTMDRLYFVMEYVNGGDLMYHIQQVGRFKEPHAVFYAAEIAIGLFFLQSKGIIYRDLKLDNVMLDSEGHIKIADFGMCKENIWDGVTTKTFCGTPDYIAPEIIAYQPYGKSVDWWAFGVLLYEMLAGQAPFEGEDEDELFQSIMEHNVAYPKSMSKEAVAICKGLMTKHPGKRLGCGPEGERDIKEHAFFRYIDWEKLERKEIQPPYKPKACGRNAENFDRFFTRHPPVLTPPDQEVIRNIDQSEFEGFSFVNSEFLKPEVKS
A typical assay was carried out on a 96-well, clear microtiter plate in a Molecular Devices spectrophotometer for 20 minutes at 30° C. in 0.1 mL of assay buffer containing 50 mM HEPES, pH 7.4, 5 nM PKC, 23 units of pyruvate kinase, 33 units of lactate dehydrogenase, 0.15 mM peptide, 0.1 mM ATP, 1 mM DTT, 4 mM PEP, 8 mM MgCl2, 0.3 mM NADH, 60 mM CaCl2, 10 mg/mL PS, 50 ng/mL PMA, 7.5% DMSO and from about 10,000 nM to 0.169 nM compound inhibitor. Stock solutions of 3-sn-phosphatidyl-L-serine (PS) and phorbol-12-myristate-13-acetate (PMA) were sonicated for 30 seconds just prior to addition to assay buffer and assays were initiated by the addition of 100 μM ATP.
Steady-state kinetic parameters for the bi-bi kinase reaction were determined at saturating phospho-acceptor peptide substrate concentration (0.15 mM) by fitting initial velocity data to the Michaelis-Menten equation, v=Vmax[S]/(KM+[S]) where v is the measured initial velocity, Vmax is the maximal enzyme velocity, [S] is the ATP substrate concentration, and KM is the Michealis constant for ATP. Enzyme turnover values (kcat) were calculated according to […], where [E] is the total enzyme concentration. Enzyme inhibition constants (apparent Ki values) were determined by fitting initial velocities at variable inhibitor concentrations to a model for ATP competitive inhibition based on the Morrison equation). Morrison, J. F., Biochim. Biophys Acta 185: 269-286 (1969).

Where a name gives a salt, the structure may show the parent alone. Some results are limits rather than exact numbers.

Turning to `CCOc1ncc(F)c(Nc2n[nH]c3c2CN(C(=O)N2C[C@]4(C)CCCN4C[C@@H]2C)C3(C)C)n1` [Example K15, 5-{[(3S,8aS)-3,8a-dimethylhexahydropyrrolo[1,2-a]pyrazin-2(1H)-yl]carbonyl}-N-(2-ethoxy-5-fluoropyrimidin-4-yl)-6,6-dimethyl-1,4,5,6-tetrahydropyrrolo[3,4-c]pyrazol-3-amine], the Ki was determined as 11.2 nM.
As for `COCCOc1ncc(F)c(Nc2n[nH]c3c2CN(C(=O)C2(F)CCN(C)CC2)C3(C)C)n1` [Example L2, N-[5-fluoro-2-(2-methoxyethoxy)pyrimidin-4-yl]-5-[(4-fluoro-1-methylpiperidin-4-yl)carbonyl]-6,6-dimethyl-1,4,5,6-tetrahydropyrrolo[3,4-c]pyrazol-3-amine], the figure is 168 nM; as for `CCOc1ncc(F)c(Nc2n[nH]c3c2CN(C(=O)N2C[C@H](C)N(C)C[C@@H]2C)C3(C)C)n1` [Example K13, 2(S),5(S)-{[dimethyl-4-methylpiperazin-1-yl]carbonyl}-N-(5-fluoro-2-ethoxypyrimidin-4-yl)-6,6-dimethyl-1,4,5,6-tetrahydropyrrolo[3,4-c]pyrazol-3-amine], 26.5 nM.
Turning to `CC(C)CNc1ncc(F)c(Nc2n[nH]c3c2CN(C(=O)N2CC(C)(C)N(C)C[C@@H]2C)C3(C)C)n1` [Example A4, N^4-(6,6-dimethyl-5-{[(2S)-2,4,5,5-tetramethylpiperazin-1-yl]carbonyl}-1,4,5,6-, tetrahydropyrrolo[3,4-c]pyrazol-3-yl)-5-fluoro-N^2-isobutylpyrimidine-2,4-diamine acetate salt], the Ki turned out to be 37.6 nM.
The result for `CCc1ncc(F)c(Nc2n[nH]c3c2CN(C(=O)C2(F)CCN(C)CC2)C3(C)C)n1` [Example G1, N-(2-ethyl-5-fluoropyrimidin-4-yl)-5-[(4-fluoro-1-methylpiperidin-4-yl)carbonyl]-6,6-dimethyl-1,4,5,6-tetrahydropyrrolo[3,4-c]pyrazol-3-amine] reads 25.4 nM; that for `CC[C@H]1CN(C(=O)N2Cc3c(Nc4nc(C)ncc4F)n[nH]c3C2(C)C)CCN1C` [Example H4, 5-{[(3S)-3-ethyl-4-methylpiperazin-1-yl]carbonyl}-N-(5-fluoro-2-methylpyrimidin-4-yl)-6,6-dimethyl-1,4,5,6-tetrahydropyrrolo[3,4-c]pyrazol-3-amine], 86 nM.
The result for `CCOc1ncc(F)c(Nc2n[nH]c3c2CN(C(=O)C2CCN(C4CCOCC4)CC2)C3(C)C)n1` [Example L6, N-(2-ethoxy-5-fluoropyrimidin-4-yl)-6,6-dimethyl-5-{[1-(tetrahydro-2H-pyran-4-yl)piperidin-4-yl]carbonyl}-1,4,5,6-tetrahydropyrrolo[3,4-c]pyrazol-3-amine] reads 181 nM; that for `Cc1cccc(Nc2n[nH]c3c2CN(C(=O)C2(F)CCN(C)CC2)C3(C)C)n1` [Example J2, 5-[(4-fluoro-1-methylpiperidin-4-yl)carbonyl]-6,6-dimethyl-N-(6-methylpyridin-2-yl)-1,4,5,6-tetrahydropyrrolo[3,4-c]pyrazol-3-amine], 59.9 nM.
As for `Cc1ncc(F)c(Nc2n[nH]c3c2CN(C(=O)N2CC(C)(C)N(C)C[C@@H]2C)C3(C)C)n1` [Example H3, N-(5-fluoro-2-methylpyrimidin-4-yl)-6,6-dimethyl-5-{[(2S)-2,4,5,5-tetramethylpiperazin-1-yl]carbonyl}-1,4,5,6-tetrahydropyrrolo[3,4-c]pyrazol-3-amine], the figure is 7.21 nM; as for `C[C@H]1CN(C)C(C)(C)CN1C(=O)N1Cc2c(Nc3ccnc(N(C)C)n3)n[nH]c2C1(C)C` [Example A9, N^4-(6,6-dimethyl-5-{[(2S)-2,4,5,5-tetramethylpiperazin-1-yl]carbonyl}-1,4,5,6-tetrahydropyrrolo[3,4-c]pyrazol-3-yl)-N^2,N^2-dimethylpyrimidine-2,4-diamine], 9.73 nM.
As to `Cc1cccc(Nc2n[nH]c3c2CN(C(=O)N2C[C@]4(C)CCCN4C[C@@H]2C)C3(C)C)n1` [Example J7, 5-{[(3S,8aS)-3,8a-dimethylhexahydropyrrolo[1,2-a]pyrazin-2(1H)-yl]carbonyl}-6,6-dimethyl-N-(6-methylpyridin-2-yl)-1,4,5,6-tetrahydropyrrolo[3,4-c]pyrazol-3-amine], the Ki is 111 nM.
The result for `CCOc1ncc(F)c(Nc2n[nH]c3c2CN(C(=O)N2C[C@@H](C)N(CC4CCOCC4)C[C@@H]2C)C3(C)C)n1` [Example K19, 5-{[(2S,5R)-2,5-dimethyl-4-(tetrahydro-2H-pyran-4-ylmethyl)piperazin-1-yl]carbonyl}-N-(2-ethoxy-5-fluoropyrimidin-4-yl)-6,6-dimethyl-1,4,5,6-tetrahydropyrrolo[3,4-c]pyrazol-3-amine] reads < 10 nM; that for `CCOc1ncc(F)c(Nc2n[nH]c3c2CN(C(=O)N2CCN(C)[C@H](C)C2)C3(C)C)n1` [Example K17, 5-{[(3R)-3,4-dimethylpiperazin-1-yl]carbonyl}-N-(2-ethoxy-5-fluoropyrimidin-4-yl)-6,6-dimethyl-1,4,5,6-tetrahydropyrrolo[3,4-c]pyrazol-3-amine], 44.4 nM; that for `CCNc1nccc(Nc2n[nH]c3c2CN(C(=O)N2CC(C)(C)N(C)C[C@@H]2C)C3(C)C)n1` [Example A8, N^4-(6,6-dimethyl-5-{[(2S)-2,4,5,5-tetramethylpiperazin-1-yl]carbonyl}-1,4,5,6-tetrahydropyrrolo[3,4-c]pyrazol-3-yl)-N^2-ethylpyrimidine-2,4-diamine], 3.39 nM.
For the compound `CC(C)Nc1ncc(F)c(Nc2n[nH]c3c2CN(C(=O)N2CC(C)(C)N(C)C[C@@H]2C)C3(C)C)n1` [Example A7, N^4-(6,6-dimethyl-5-{[(2S)-2,4,5,5-tetramethylpiperazin-1-yl]carbonyl}-1,4,5,6-tetrahydropyrrolo[3,4-c]pyrazol-3-yl)-5-fluoro-N^2-isopropylpyrimidine-2,4-diamine], the Ki was found to be 3.81 nM.
The result for `CCOc1ccnc(Nc2n[nH]c3c2CN(C(=O)N2C[C@@H](C)N(C)C[C@@H]2C)C3(C)C)n1` [Example M1, N-(4-ethoxypyrimidin-2-yl)-6,6-dimethyl-5-{[(2S,5R)-2,4,5-trimethylpiperazin-1-yl]carbonyl}-1,4,5,6-tetrahydropyrrolo[3,4-c]pyrazol-3-amine] reads 4.24 nM; that for `Cc1ccnc(Nc2n[nH]c3c2CN(C(=O)N2C[C@@H](C)N(CC4CCOCC4)C[C@@H]2C)C3(C)C)n1` [Example J15, 5-{[(2S,5R)-2,5-dimethyl-4-(tetrahydro-2H-pyran-4-ylmethyl)piperazin-1-yl]carbonyl}-6,6-dimethyl-N-(4-methylpyrimidin-2-yl)-1,4,5,6-tetrahydropyrrolo[3,4-c]pyrazol-3-amine], < 10 nM.
Regarding `CCNc1ncc(F)c(Nc2n[nH]c3c2CN(C(=O)C2(F)CCN(C)CC2)C3(C)C)n1` [Example C1, N^2-ethyl-5-fluoro-N^4-{5-[(4-fluoro-1-methylpiperidin-4-yl)carbonyl]-6,6-dimethyl-1,4,5,6-tetrahydropyrrolo[3,4-c]pyrazol-3-yl}pyrimidine-2,4-diamine], the Ki came out at 33.4 nM.
With `C[C@@H]1CN(C(=O)N2Cc3c(Nc4nc(N5CCOCC5)ncc4F)n[nH]c3C2(C)C)[C@@H](C)CN1C` [Example B7, N-(5-fluoro-2-morpholin-4-ylpyrimidin-4-yl)-6,6-dimethyl-5-{[(2S,5R)-2,4,5-trimethylpiperazin-1-yl]carbonyl}-1,4,5,6-tetrahydropyrrolo[3,4-c]pyrazol-3-amine], the Ki was determined as 20.1 nM.
As for `Cc1cc(C)nc(Nc2n[nH]c3c2CN(C(=O)N2C[C@@H](C)N(CC4CCOCC4)C[C@@H]2C)C3(C)C)n1` [Example J16, N-(4,6-dimethylpyrimidin-2-yl)-5-{[(2S,5R)-2,5-dimethyl-4-(tetrahydro-2H-pyran-4-ylmethyl)piperazin-1-yl]carbonyl}-6,6-dimethyl-1,4,5,6-tetrahydropyrrolo[3,4-c]pyrazol-3-amine], the figure is 11.1 nM; as for `Cc1ncc(F)c(Nc2n[nH]c3c2CN(C(=O)N2CC(CCO)N(C)C[C@@H]2C)C3(C)C)n1` (single isomer, unassigned) [Example H9], 58.2 nM; as for `CCc1ncc(F)c(Nc2n[nH]c3c2CN(C(=O)N2C[C@@H](C)N(CCCOC)C[C@@H]2C)C3(C)C)n1` [Example E2, N-(2-ethyl-5-fluoropyrimidin-4-yl)-5-{[(2S,5R)-4-(3-methoxypropyl)-2,5-dimethylpiperazin-1-yl]carbonyl}-6,6-dimethyl-1,4,5,6-tetrahydropyrrolo[3,4-c]pyrazol-3-amine], 1.64 nM.
